One test concerns the target T1, recombinant TDP1 (Homo sapiens, UniProt Q9NUW8).
T1 construct: incubated with 40 pM full-length recombinant TDP1 or TDP1 (148–608)
Description: in vitro gel-based fluorescence TDP1 catalytic assay. The format is biochemical. Particulars: 15 min, room temperature. As to the method:
We subjected select virtual screen hits to evaluation of TDP1 inhibitory potencies using in vitro gel-based fluorescence TDP1 catalytic assays (Fig. 2). […] To further explore this class of compounds, we purchased from TargetMol a library of approximately 90 β-lactams as 10 mM solutions in DMSO. […] We examined TDP1 inhibitory potencies of the compounds using the in vitro gel-based fluorescence assays as previously described[21]–[24]. Briefly, a 5’-Cy5-labeled DNA substrate (N14Y, 5’-Cy5-[…]-pY-3’, 1 nM) was incubated in TDP1 reaction buffer with recombinant TDP1 or truncated TDP1(148–608) (40 pM) in the absence or presence of inhibitors for 15 min at room temperature. […] The TDP1 inhibition IC50 values were calculated based on gel images of the cleavage product (N14P, 5’-Cy5-[…]-p-3’) (Fig. 3A and Table S2).
(§1) The inhibition of TDP1 and TDP2 were conducted according to gel-based methods as previously described[21]–[24],[45]. Briefly, 1 nM of the DNA substrate (N14Y, 5´Cy5-[…]-pY-3´) was incubated with 40 pM full-length recombinant TDP1 or TDP1 (148–608) in the absence or presence of inhibitors for 15 min at room temperature in TDP1 reaction buffer (50 mM Tris-HCl, pH 7.5, 80 mM KCl, 2 mM EDTA, 1 mM DTT, 40 µg/mL BSA and 0.01% Tween 20). The inhibition of TDP2 was also conducted by using similar conditions. […] The reactions of both TDP1 and TDP2 were stopped by adding an equal volume of gel loading buffer (99.5% (v/v) formamide, 5 mM EDTA). The samples were then subjected to a 20% denaturing PAGE gel followed by gel scanning using a Typhoon FLA 9500 scanner (GE Healthcare). The IC50 values of the TDP1 inhibitors were calculated by comparing the percentage of the cleavage product (N14P, 5´Cy5-[…]-p-3´) produced to that in the DMSO control. The IC50 values of the TDP2 inhibitors were calculated by comparing the percentage of the cleavage product (PN18, 5’-p-[…]-Cy5-3’) produced to that in the DMSO control.

A further test addresses T2, recombinant TDP2 (Homo sapiens, UniProt O95551).
T2 sequence (O95551 1-362): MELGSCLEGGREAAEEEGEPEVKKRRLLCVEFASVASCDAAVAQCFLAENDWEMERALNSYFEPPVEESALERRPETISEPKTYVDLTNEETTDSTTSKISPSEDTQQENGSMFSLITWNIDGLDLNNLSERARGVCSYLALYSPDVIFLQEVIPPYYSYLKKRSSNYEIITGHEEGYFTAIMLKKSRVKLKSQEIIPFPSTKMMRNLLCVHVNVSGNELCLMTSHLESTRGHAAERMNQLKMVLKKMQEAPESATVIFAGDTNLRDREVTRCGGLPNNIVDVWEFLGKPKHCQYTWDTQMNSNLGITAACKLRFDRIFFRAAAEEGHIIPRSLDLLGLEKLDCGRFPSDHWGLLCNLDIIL
Description: in vitro gel-based fluorescence TDP2 assay (counterscreen). It counts as biochemical. Particulars: for IC50: 15 min, RT. Here is the method:
as §1

Where [1] appears, read: 40 pM recombinant TDP1, 1 nM N14Y DNA substrate, read-out: TDP1 IC50.
The mark [2] stands for this setting: 40 pM recombinant TDP2, 1 nM YN18 DNA substrate, read-out: TDP2 IC50.
The mark [3] stands for this setting: TDP1 IC50, 40 pM recombinant TDP1, 1 nM N14Y DNA substrate.

Values joined by “and” are separate entries in the source; they are usually repeats but may differ in a detail not shown here. Equal values may be shown once. Where a name gives a salt, the structure may show the parent alone. Read-outs that look alike come from different tables or passages of the source. Where only a bound is given, the exact number is not on record here.

T1 sequence (Q9NUW8 whole entry): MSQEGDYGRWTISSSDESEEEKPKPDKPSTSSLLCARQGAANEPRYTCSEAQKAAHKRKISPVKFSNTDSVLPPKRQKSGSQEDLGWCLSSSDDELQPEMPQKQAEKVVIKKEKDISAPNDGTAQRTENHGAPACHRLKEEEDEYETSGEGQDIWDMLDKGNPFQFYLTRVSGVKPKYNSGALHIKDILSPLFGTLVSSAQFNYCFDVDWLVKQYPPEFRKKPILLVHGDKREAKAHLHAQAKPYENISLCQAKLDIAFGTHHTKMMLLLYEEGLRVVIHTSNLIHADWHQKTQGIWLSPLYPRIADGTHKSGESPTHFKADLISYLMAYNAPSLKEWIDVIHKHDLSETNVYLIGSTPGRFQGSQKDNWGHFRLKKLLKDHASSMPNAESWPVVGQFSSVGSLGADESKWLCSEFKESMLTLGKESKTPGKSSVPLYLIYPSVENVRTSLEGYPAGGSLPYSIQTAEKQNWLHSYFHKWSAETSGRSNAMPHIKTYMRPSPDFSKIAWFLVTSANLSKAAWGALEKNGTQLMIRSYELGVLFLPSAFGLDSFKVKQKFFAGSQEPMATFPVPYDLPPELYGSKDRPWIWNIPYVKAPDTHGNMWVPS

On to `CC(=O)OCC1=C(C(=O)O)N2C(=O)[C@@H](NC(=O)CCC[C@@H](N)C(=O)O)[C@H]2SC1` [11-Zn, Cephalosporin C Zinc salt], for which the IC50 at recombinant TDP1 (read-out: TDP1 IC50, 40 pM recombinant TDP1, 1 nM N14Y DNA substrate) worked out at 5.3 µM; at recombinant TDP2 (read-out: TDP2 IC50, 40 pM recombinant TDP2, 1 nM YN18 DNA substrate), 89.1 µM.

Consider `CCN1CCN(C(=O)N[C@@H](C(=O)N[C@@H]2C(=O)N3[C@@H]2SC(C)(C)[C@@H]3C(=O)O)c2ccccc2)C(=O)C1=O` [LA2, piperacillin], for which the IC50 on recombinant TDP1 (setting [1]) was 28 µM and < 100 µM; at recombinant TDP2 (setting [2]), 224 ± 26 µM.

`CO/N=C(\C(=O)N[C@@H]1C(=O)N2C(C(=O)O)=C(COC(C)=O)CS[C@H]12)c1csc(N)n1` [LA9, Cefotaxime]: the 50% inhibitory concentration (IC50) on recombinant TDP2 (setting [2]) stood at 81.7 ± 5.2 µM.

Take `CC(=O)OCC1=C(C(=O)O)N2C(=O)[C@@H](NC(=O)CCC[C@@H](N)C(=O)O)[C@H]2SC1` [LB2, Cephalosporin C zinc salt]: the IC50 is 5.54 µM and < 100 µM and 5.5 µM on recombinant TDP1 (setting [3]); 38.3 µM on recombinant TDP2 (TDP2 IC50, 40 pM recombinant TDP2, 1 nM YN18 DNA substrate). The “greater potency against TDP1 than against TDP2” value at recombinant TDP2 (ratio of gel-based IC50 values) was “approximately 7 fold”.

`CC1(C)[C@H](C(=O)O)N2C(=O)C[C@H]2S1(=O)=O` [LB6, Sulbactam sodium]: the 50% inhibitory concentration (IC50) was 84.5 µM and < 100 µM and 85 µM on recombinant TDP1 (setting [1]); 201 µM at recombinant TDP2 (setting [2]).

In the case of `CC1(C)S[C@@H]2[C@H](NC(=O)[C@H](N)c3ccccc3)C(=O)N2[C@H]1C(=O)O` [LB9, Ampicillin sodium], the IC50 on recombinant TDP1 (setting [1]) was 10.3 µM and < 100 µM and 10 µM; at recombinant TDP2 (setting [2]), 2.49 µM. For the same compound, on recombinant TDP2 (ratio of gel-based IC50 values), the “greater potency against TDP2 than TDP1” value was 4 fold.

With `CC1(C)S[C@@H]2[C@H](NC(=O)[C@H](N)c3ccc(O)cc3)C(=O)N2[C@H]1C(=O)O` [LB11, Amoxicillin Sodium], the IC50 at recombinant TDP2 (setting [2]) was found to be 99 ± 2.15 µM.

Consider `CON=C(C(=O)NC1C(=O)N2C(C(=O)O)=C(CSC(=O)c3ccco3)CSC12)c1csc(N)n1` (stereo not shown) [LC2, Ceftiofur hydrochloride], for which the concentration for half-maximal inhibition (IC50) at recombinant TDP1 (setting [1]) was greater than 1000 µM; on recombinant TDP2 (setting [2]), 80.9 ± 13.2 µM.

Consider `CC1(C)S[C@@H]2[C@H](NC(=O)Cc3ccccc3)C(=O)N2[C@H]1C(=O)O` [LC5, Benzylpenicillin potassium], for which the IC50 on recombinant TDP1 (setting [1]) was greater than 1000 µM; on recombinant TDP2 (setting [2]), 26.1 ± 3.35 µM.

With `Cc1onc(-c2c(F)cccc2Cl)c1C(=O)N[C@@H]1C(=O)N2[C@@H]1SC(C)(C)[C@@H]2C(=O)O` [LC11, Flucloxacillin sodium], the IC50 on recombinant TDP2 (setting [2]) turned out to be 36 ± 1.35 µM.

As for `CC1(C)S[C@@H]2[C@H](NC(=O)[C@H](N)c3ccccc3)C(=O)N2[C@H]1C(=O)O` [LD1, Ampicillin Trihydrate], the IC50 on recombinant TDP1 (setting [1]) was 77.3 µM and < 100 µM and 77 µM; on recombinant TDP2 (setting [2]), greater than 1000 µM.

Take `CC1(C)S[C@@H]2[C@H](NC(=O)Cc3ccccc3)C(=O)N2[C@H]1C(=O)O` [LD8, Procaine penicillin G]: the IC50 at recombinant TDP1 (setting [1]) was 84.8 µM and < 100 µM and 85 µM; on recombinant TDP2 (setting [2]), 77.4 µM.

As for `CO/N=C(\C(=O)N[C@@H]1C(=O)N2C(C(=O)O)=CCS[C@H]12)c1csc(N)n1` [LD9, Ceftizoxime], the concentration for half-maximal inhibition (IC50) was 10.8 µM and < 100 µM and 11 µM on recombinant TDP1 (setting [1]); 37.6 ± 7.4 µM on recombinant TDP2 (setting [2]).

`COc1cccc2c1cc1c3c(cc4c(c32)OCO4)C(=O)N1` [LE2, Aristololactam I]: the IC50 was 80.6 µM and 81 µM on recombinant TDP1 (setting [1]); less than 100 µM on recombinant TDP1 (setting [3]); 70.1 µM at recombinant TDP2 (setting [2]).

For the compound `O=C1[C@H](CC[C@H](O)c2ccc(F)cc2)[C@@H](c2ccc(O)cc2)N1c1ccc(F)cc1` [LE9, Ezetimibe], the IC50 was 27.5 µM and < 100 µM and 27 µM on recombinant TDP1 (setting [1]); 52.6 µM on recombinant TDP2 (setting [2]).

`CC(C)(O/N=C(\C(=O)N[C@@H]1C(=O)N2C(C(=O)[O-])=C(C[n+]3ccccc3)CS[C@H]12)c1csc(N)n1)C(=O)O` [LF6, Ceftazidime]: the IC50 was 5.8 µM and < 100 µM at recombinant TDP1 (setting [1]); 18.9 ± 2.2 µM at recombinant TDP2 (setting [2]).

On to `CC1(Cn2ccnn2)C(C(=O)O)N2C(=O)CC2S1(=O)=O` (stereo not shown) [LF8, Tazobactam acid], for which the IC50 is 73.8 µM and < 100 µM and 74 µM on recombinant TDP1 (setting [1]); 45.5 µM on recombinant TDP2 (setting [2]).

Consider `CO/N=C(\C(=O)N[C@@H]1C(=O)N2C(C(=O)O)=C(CSc3nc(=O)c(=O)[nH]n3C)CS[C@H]12)c1csc(N)n1` [LG2, Ceftriaxone sodium], for which the 50% inhibitory concentration (IC50) on recombinant TDP1 (setting [1]) is greater than 1000 µM.

On to `CCN1CCN(C(=O)N[C@@H](C(=O)N[C@@H]2C(=O)N3[C@@H]2SC(C)(C)[C@@H]3C(=O)O)c2ccccc2)C(=O)C1=O` [LG3, Piperacillin sodium salt], for which, at recombinant TDP1 (setting [1]), the concentration for half-maximal inhibition (IC50) is greater than 1000 µM.

With `CO/N=C(\C(=O)N[C@@H]1C(=O)N2C(C(=O)O)=C(CSc3nnnn3C)CS[C@H]12)c1csc(N)n1` [LG4, Cefmenoxime hydrochloride], on recombinant TDP1 (setting [1]), the half-maximal inhibitory concentration (IC50) is greater than 1000 µM.

For `CC1(C)S[C@@H]2[C@H](NC(=O)C(C(=O)O)c3ccccc3)C(=O)N2[C@H]1C(=O)O` (stereo partly shown) [LG5, Carbenicillin disodium], at recombinant TDP1 (setting [1]), the IC50 was greater than 1000 µM.

Turning to `CC(=O)OCC1=C(C(=O)O)N2C(=O)[C@@H](NC(=O)Cc3cccs3)[C@H]2SC1` [LG7, Cephalothin sodium], the 50% inhibitory concentration (IC50) on recombinant TDP2 (setting [2]) was found to be 35.2 µM.

In the case of `C/C=C/C1=C(C(=O)O)N2C(=O)[C@@H](NC(=O)[C@H](N)c3ccc(O)cc3)[C@H]2SC1` [LG8, Cefprozil hydrate], the IC50 at recombinant TDP1 (setting [1]) is greater than 1000 µM.

On to `Cc1cc(O)c(C(=O)N[C@@H](C(=O)N[C@@H]2C(=O)N3C(C(=O)O)=C(CSc4nnnn4C)CS[C@H]23)c2ccc(O)cc2)cn1` [LH1, Cefpiramide acid], for which the concentration for half-maximal inhibition (IC50) at recombinant TDP1 (setting [1]) is greater than 1000 µM.

With `Cc1onc(-c2ccccc2Cl)c1C(=O)N[C@@H]1C(=O)N2[C@@H]1SC(C)(C)[C@@H]2C(=O)O` [LH2, Cloxacillin sodium monohydrate], the IC50 at recombinant TDP1 (setting [1]) is greater than 1000 µM.

On to `C[C@H]1[C@H](NC(=O)/C(=N\OC(C)(C)C(=O)O)c2csc(N)n2)C(=O)N1S(=O)(=O)O` [LH3, Aztreonam], for which, on recombinant TDP1 (setting [1]), the IC50 came out at 620 ± 61 µM.

Consider `C=CC1=C(C(=O)O)N2C(=O)[C@@H](NC(=O)/C(=N\OCC(=O)O)c3csc(N)n3)[C@H]2SC1` [LH5, Cefixime], for which the half-maximal inhibitory concentration (IC50) was 4 µM and < 100 µM on recombinant TDP1 (setting [1]); 69.3 ± 6 µM at recombinant TDP2 (setting [2]).

In the case of `Cc1onc(-c2c(Cl)cccc2Cl)c1C(=O)N[C@@H]1C(=O)N2[C@@H]1SC(C)(C)[C@@H]2C(=O)O` [LH7, Dicloxacillin sodium monohydrate], the concentration for half-maximal inhibition (IC50) on recombinant TDP1 (setting [1]) is greater than 1000 µM.

As for `Cc1onc(-c2ccccc2)c1C(=O)NC1C(=O)N2[C@@H]1SC(C)(C)[C@@H]2C(=O)O` (stereo partly shown) [LH8, Oxacillin sodium], the half-inhibitory concentration (IC50) at recombinant TDP1 (setting [1]) is greater than 1000 µM.

`CC1(C)S[C@@H]2[C@H](NC(=O)Cc3ccccc3)C(=O)N2[C@H]1C(=O)O` [LH9, Penicillin G sodium salt]: the 50% inhibitory concentration (IC50) on recombinant TDP1 (setting [1]) is greater than 1000 µM.

Consider `Cc1nnc(SCC2=C(C(=O)O)N3C(=O)[C@@H](NC(=O)Cn4cnnn4)[C@H]3SC2)s1` [LH10, Cefazolin sodium salt], for which, on recombinant TDP1 (setting [1]), the 50% inhibitory concentration (IC50) was 530 µM.

`CC1=C(C(=O)O)N2C(=O)[C@@H](NC(=O)[C@H](N)c3ccccc3)[C@H]2SC1` [LH11, Cephalexin]: the half-maximal inhibitory concentration (IC50) at recombinant TDP1 (setting [1]) is greater than 1000 µM.

On to `Nc1nc2c(c(=O)[nH]1)N=C(CNc1ccc(C(=O)N[C@@H](CCC(=O)O)C(=O)O)cc1)CN2` [compound 10, dihydrofolic acid dihydrate], for which the IC50 on recombinant TDP1 (setting [1]) was 60.1 µM and 60 µM.

Regarding Cefotiam Hexetil Hydrochloride [LC9], on recombinant TDP1 (setting [1]), the half-inhibitory concentration (IC50) was greater than 1000 µM.

Source of the values: publication PMC12280126, “Potent β-lactam-based tyrosyl-DNA phosphodiesterase 1 inhibitors identified by a virtual screen” (Scientific Reports, 2025).
